{
  "source": "patent US20130004979A1",
  "about": "“GLYCOSYLTRANSFERASE REVERSIBILITY FOR SUGAR NUCLEOTIDE SYNTHESIS AND MICROSCALE SCANNING” (WISCONSIN ALUMNI RESEARCH FOUNDATION, priority 2010, published 2013)",
  "key": {"[1]": {"biological_target": "OleD variant P67T/S312F/A242L/Q268V (Streptomyces antibioticus, UniProt Q53685, A242L/P67T/Q268V/S132F)", "sequence (Q53685 other isoform, or with tags, fused parts or gaps P55A/P67T/R82V/R83E/T84P/S132F/A242L/Q268V)": "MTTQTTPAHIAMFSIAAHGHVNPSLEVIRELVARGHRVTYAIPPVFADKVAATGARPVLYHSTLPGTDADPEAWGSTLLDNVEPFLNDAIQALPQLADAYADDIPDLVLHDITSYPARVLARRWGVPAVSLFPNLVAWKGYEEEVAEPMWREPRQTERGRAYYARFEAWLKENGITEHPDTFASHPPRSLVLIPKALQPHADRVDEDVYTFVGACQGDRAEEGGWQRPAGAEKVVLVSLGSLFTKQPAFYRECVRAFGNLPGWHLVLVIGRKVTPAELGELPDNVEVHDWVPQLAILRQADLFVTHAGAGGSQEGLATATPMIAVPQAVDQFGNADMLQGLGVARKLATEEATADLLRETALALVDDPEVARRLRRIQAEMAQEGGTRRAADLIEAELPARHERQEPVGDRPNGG", "assay": "Determination of equilibrium constants of the glucoside donor/UDP reaction", "type": "biochemical", "details": "with UDP, Tris-HCl 50 mM pH 8.5, 298K, relative to UDP-Glc (33a); calculated from Keq", "method": "Equilibrium constants (Keq, pH8.5) were also determined for 1, 2, 4, 7, and 9 and utilized to calculate the corresponding Gibbs free energy according to equation (1).\nΔG°pH8.5=−RT ln(Keq,pH8.5)\nReactions contained 21 μM (200 μg) OleD variant P67T/S312F/A242L/Q268V, 1 mM UDP, and 1 mM β-D-glucopyranoside donor (1, 2, 4, 7, or 9) in Tris-HCl buffer (50 mM, pH 8.5) in a final total volume of 200 μl. Multiple time course evaluations were conducted to determine the time at which each reaction reached equilibrium (<2 min for 7, 9; <90 min for 1, 4; 200 min for 2). Following, each analysis was conducted in triplicate to the minimum observed time point for equilibrium and samples were processed and evaluated as described below to determine concentrations of UDP to 33a (UDP-α-D-glucose). […] Glucoside and aglycon concentrations were inferred from the determined concentrations of UDP and 33a."}, "[2]": {"biological_target": "T1, OleD variant TDP-16 (Streptomyces antibioticus, UniProt Q53685, A242L/P67T/Q268V/S132F)", "T1 sequence (Q53685 other isoform, or with tags, fused parts or gaps P55A/P67T/R82V/R83E/T84P/S132F/A242L/Q268V)": "as above", "assay": "NDP screening with 2-chloro-4-nitrophenyl glucoside (9)", "type": "biochemical", "details": "donor 9, TDP-16, NDP as acceptor", "method": "Reactions were allowed to proceed for 5 hours, quenched with an equal volume of 40 mM phosphoric acid (adjusted to pH 6.5 with triethylamine) and heated for 30 seconds on a heat block. Following, samples were centrifuged at 10,000 g for 30 min at 0° C. and the supernatant removed for analysis. The clarified reaction mixtures were analyzed by analytical reverse-phase HPLC. HPLC was conducted with a Supelcosil LC18-T (3 μm, 150×4.6 mm) column (from Sigma-Aldrich St. Louis, Mo., USA) with a gradient of 0% B to 100% B over 20 min (A=40 mM phosphoric acid [adjusted to pH 6.5 with triethylamine]; B=10% MeOH in 40 mM phosphoric acid [adjusted to pH 6.5 with triethylamine]; flow rate=0.5 mL min-1) and detection monitored at 254 nm."}, "[3]": {"biological_target": "T1, OleD variant TDP-16", "assay": "Single enzyme coupled colorimetric screen of putative aglycon acceptors (410 nm)", "type": "biochemical", "details": "0.5 mM 9, 0.5 mM acceptor, 5 μM UDP, TDP-16, 410 nm over 480 min", "method": "Specifically, each 100 PI reaction in the 96-well plate contained the sugar donor 9 (0.5 mM), a putative aglycon acceptor (0.5 mM), a catalytic amount of UDP (5 3M) and TDP-16 (11 3M) and reaction progress was monitored at 410 nm over 480 min. […] Based upon this cumulative rapid analysis, […] (62-103) led to a positive response (designated as three standard deviations above the mean for control reactions), 37 of which (62-93, 96, 97, 99, 101, 103) were subsequently confirmed by HPLC and/or LC/MS to lead to products consistent with glucoside formation.\nReactions containing 10.5 μM (50 μg) OleD variant TDP-16, 5 μM of UDP, 0.5 mM final acceptor (58 [as a positive control] and 62-111), and 0.5 mM 2-chloro-4-nitrophenyl-β-D-glucoside (9) in Tris-HCl buffer (50 mM, pH 8.5) with a final volume of 100 μl were prepared in a 96 well flat bottom Bacti plate (0.4 mL well^−1; Nagle Nunc International, Rochester, N.Y., USA). Absorbance measurements were recorded every 2 min at 410 nm for 8 hours on a FLUOstar Optima plate reader (BMG, Durham, N.C., USA) with the plate shaken within the reader for 5 seconds before collection of each time point. Reactions containing final acceptor were run at n=1, control reactions lacking final acceptor were run at n=6, and control reactions lacking both final acceptor and UDP were run at n=3. […]"}, "[4]": {"biological_target": "OleD variant (Streptomyces antibioticus, UniProt Q53685, A242L/P67T/Q268V/S132F)", "sequence (Q53685 other isoform, or with tags, fused parts or gaps P55A/P67T/R82V/R83E/T84P/S132F/A242L/Q268V)": "as above", "assay": "β-D-glucoside screening: reverse reaction forming UDP-/TDP-glucose", "type": "biochemical", "details": "in combination with OleD variant TDP-16", "from_the_text": "The availability of a GT capable of utilizing a wide array of both simple aromatic acceptors and sugar nucleotides set the stage for this systematic study. With the aid of a crystal structure (10), previous directed evolution and engineering of an inverting macrolide-inactivating GT from S. antibioticus (OleD) identified several highly permissive variants for both sugar nucleotides (14 known sugar substrates) and acceptors (>70 structurally diverse known substrates) in the context of the forward reaction (11-16). Utilizing the aglycons recognized in forward reactions as a template, a set of 32 putative ü-D-glucopyranosides donors were synthesized and tested against a series of OleD variants in reverse reactions for production of UDP-J-D-glucose (UDP-Glc, 33a) in the presence of UDP (FIG. 14a). The syntheses of these putative donors required 1-3 steps (37% average overall yield) and, in all but one case (19), provided the desired E-anomer exclusively. Of the 32 putative donors evaluated, 9 (1-9) led to UDP-Glc (33a) formation with all variants examined (FIG. 14b).\nReactions containing 2.1 μM (10 μg) of purified OleD variant, 1 mM of UDP or TDP, and 1 mM of β-D-glucopyranoside (1-32) in Tris-HCl (50 mM, pH 8.5) with a final volume of 100 μl were incubated at room temperature for 1 hour. Samples were frozen in a bath of dry ice and acetone and stored at −20° C. […]"}, "[5]": {"assay": "Solubility of donor under kinetic assay conditions", "type": "physicochemical", "details": "50 mM Tris-HCl buffer, aqueous buffer; 50 mM Tris-HCl (pH 8.5)"}, "[6]": {"biological_target": "T1, OleD variant TDP-16", "assay": "2-chloro-4-nitrophenyl glycoside screening for NDP-sugar formation", "type": "biochemical", "description": "Aliquots were removed at various time points, mixed with an equal volume of ddH2O, frozen in a bath of dry ice and acetone, and stored at −20° C. Following, samples were thawed at 4° C. and filtered through a MultiScreen Filter Plate (from Millipore, Billerica, Mass., USA) according to manufacturer's instructions. Samples were evaluated for formation of NDPsugar by analytical reverse-phase HPLC with a 250 mm×4.6 mm Gemini-NX 5μ C18 column (from Phenomenex, Torrance, Calif., USA) using a linear gradient of 0% to 50% CH3CN (solvent B) over 25 minutes (solvent A=50 mM PO4^−2, 5 mM tetrabutylammonium bisulfate, 2% acetonitrile [pH adjusted to 6.0 with KOH]; flow rate=1 ml min^−1; A254 nm)."}},
  "data": [
    {"smiles": "OCC1O[C@@H](Oc2ccccc2Cl)C(O)[C@@H](O)[C@@H]1O", "note": "(stereo partly drawn) [Compound 4, 2-chlorophenyl-β-D-glucopyranoside]", "values": [
      {"measurement": "ΔG°pH8.5 of donor to UDP-Glc transformation", "setting": "[1]", "result": "+2.55 kcal mol-1"}
    ]},
    {"smiles": "Nc1ncnc2c1ncn2[C@@H]1O[C@H](COP(=O)(O)OP(=O)(O)O)[C@@H](O)[C@H]1O", "note": "[ADP]", "values": [
      {"measurement": "NDP-sugar formation efficiency", "setting": "[2]", "result": "much lower efficiency"}
    ]},
    {"smiles": "O=c1c(-c2ccc(O)cc2)coc2cc(O)cc(O)c12", "note": "[Compound 62, genistein]", "values": [
      {"measurement": "response in colorimetric screen (three standard deviations above the mean for control reactions)", "setting": "[3]", "result": "hits"}
    ]},
    {"smiles": "O=C(O)c1cn(C2CC2)c2cc(N3CCNCC3)c(F)cc2c1=O", "note": "[Compound 92, ciprofloxacin]", "values": [
      {"measurement": "response in colorimetric screen (three standard deviations above the mean for control reactions)", "setting": "[3]", "result": "hits"}
    ]},
    {"smiles": "Nc1nc2c(ncn2[C@@H]2O[C@H](COP(=O)(O)OP(=O)(O)O)[C@@H](O)[C@H]2O)c(=O)[nH]1", "note": "[GDP]", "values": [
      {"measurement": "NDP-sugar formation efficiency", "setting": "[2]", "result": "much lower efficiency"}
    ]},
    {"smiles": "O=[N+]([O-])c1ccc(O[C@@H]2OC(CO)[C@@H](O)[C@H](O)C2O)c(Cl)c1", "note": "(stereo partly drawn) [Compound 9, 2-chloro-4-nitrophenyl-β-D-glucopyranoside]", "values": [
      {"measurement": "overall yields of UDP-Glc (33a) or TDP-Glc (33b)", "setting": "[4]", "result": "best overall yields"},
      {"measurement": "ΔG°pH8.5 of donor to UDP-Glc transformation", "setting": "[1]", "result": "−2.78", "unit": "kcal mol-1"},
      {"measurement": "solubility", "setting": "[5]", "result": "~25", "unit": "mM"}
    ]},
    {"smiles": "O=[N+]([O-])c1ccc(O[C@H]2OC[C@@H](O)[C@H](O)[C@H]2O)c(Cl)c1", "note": "[α-anomer of 38]", "values": [
      {"measurement": "turnover as donor substrate (anomer)", "setting": "[6]", "result": "no turnover"}
    ]}
  ]
}
